Where only a bound is given, the exact number is not on record here.

T1 sequence (P43220 24-463): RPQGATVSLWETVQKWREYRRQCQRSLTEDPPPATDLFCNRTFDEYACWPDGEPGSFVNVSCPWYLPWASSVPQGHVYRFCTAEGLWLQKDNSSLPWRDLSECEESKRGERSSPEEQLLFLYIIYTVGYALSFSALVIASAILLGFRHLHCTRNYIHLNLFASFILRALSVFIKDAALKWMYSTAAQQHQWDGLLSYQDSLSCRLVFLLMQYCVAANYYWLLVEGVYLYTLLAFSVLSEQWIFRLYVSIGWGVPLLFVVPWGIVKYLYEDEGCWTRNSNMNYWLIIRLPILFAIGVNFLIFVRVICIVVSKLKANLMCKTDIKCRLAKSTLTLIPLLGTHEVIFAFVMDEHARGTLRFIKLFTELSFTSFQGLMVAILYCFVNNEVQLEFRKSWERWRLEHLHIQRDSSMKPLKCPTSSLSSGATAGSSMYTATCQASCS
T1 sequence (P01275 100-127 partner limits assumed): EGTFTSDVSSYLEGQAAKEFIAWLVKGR

This test has as its target T1, GLP-1R (Homo sapiens, UniProt P43220).
T1 construct: host or cells: CRE-bla CHO-K1
Nature of the test: EC20 GLP-1(9-36) PAM cAMP assay: dose response of compound in the presence of fixed concentration of GLP-1(9-36). Type of test: cell-based. To be noted: GLP-1R CRE-bla CHO-K1 cells, compound dose response in presence of fixed concentration of GLP-1(9-36). In outline: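 GLP-1R CRE-bla CHO-K1 cells in HBSS/10 mM Hepes/0.1% BSA pH 7.4 with IBMX got a 12-point compound dose response plus fixed EC20 GLP-1(9-36), 30 min at 37 °C. cAMP measured by HitHunter luminescence against a standard curve; EC50 and Emax by non-linear regression.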
`CCc1ccc(C(=O)N[C@@H](Cc2ccc(-c3ncc(-c4ccc(C(C)(C)C)cc4)cn3)cc2)C(=O)O)s1` [Compound 166]: the EC50 lay in the range of 0.8 to 2.5 µM.

In the case of `CC(C)n1cc(C(=O)N[C@@H](Cc2ccc(-c3ncc(-c4ccc(C(C)(C)C)cc4)cn3)cc2)C(=O)O)cn1` [Compound 167], the EC50 lay within 0.8 to 2.5 µM.

As to `CC(C)(C)c1ccc(-c2cnc(-c3ccc(C[C@H](NC(=O)c4cc(C(C)(C)C)n[nH]4)C(=O)O)cc3)nc2)cc1` [Compound 168], the EC50 fell in the range of 0.8 to 2.5 µM.

As to `CC(C)(C)c1ccc(-c2cnc(-c3ccc(C[C@H](NC(=O)c4nnc(C(C)(C)C)s4)C(=O)O)cc3)nc2)cc1` [Compound 169], the EC50 is 5 to 10 µM.

As for `COc1ccc(C(=O)N[C@@H](Cc2ccc(-c3ncc(-c4ccc(C(C)(C)C)cc4)cn3)cc2)C(=O)O)cc1` [Compound 170], the EC50 fell in the range of 0.8 to 2.5 µM.

`CCOc1ccc(C(=O)N[C@@H](Cc2ccc(-c3ncc(-c4ccc(C(C)(C)C)cc4)cn3)cc2)C(=O)O)cc1` [Compound 171]: the EC50 was 0.8 to 2.5 µM.

As to `CC(C)(C)Cc1ccc(C(=O)N[C@@H](Cc2ccc(-c3ncc(-c4ccc(C(C)(C)C)cc4)cn3)cc2)C(=O)O)cc1` [Compound 172], the EC50 was in the range of 0.8 to 2.5 µM.

Take `CC(C)(C)c1ccc(-c2cnc(-c3ccc(C[C@H](NC(=O)c4ccc(OC(F)(F)F)cc4)C(=O)O)cc3)nc2)cc1` [Compound 173]: the EC50 was in the range of 0.8 to 2.5 µM.

In the case of `CC(C)(C)c1ccc(-c2cnc(-c3ccc(C[C@H](NC(=O)c4ccc(C(F)(F)F)cc4)C(=O)O)cc3)nc2)cc1` [Compound 174], the EC50 was < 0.8 µM.

Regarding `CC(C)(C)c1ccc(-c2cnc(-c3ccc(C[C@H](NC(=O)c4ccc(O)cc4)C(=O)O)cc3)nc2)cc1` [Compound 175], the EC50 was < 0.8 µM.

`CC(=O)c1ccc(C(=O)N[C@@H](Cc2ccc(-c3ncc(-c4ccc(C(C)(C)C)cc4)cn3)cc2)C(=O)O)cc1` [Compound 176]: the EC50 is 5 to 10 µM.

Regarding `CC(C)(C)c1ccc(-c2cnc(-c3ccc(C[C@H](NC(=O)c4ncc(C(C)(C)C)s4)C(=O)O)cc3)nc2)cc1` [Compound 177], the EC50 lay in the range of 0.8 to 2.5 µM.

Take `CC(C)(C)c1ccc(-c2cnc(-c3ccc(C[C@H](NC(=O)c4cnn(C(C)(C)C)c4)C(=O)O)cc3)nc2)cc1` [Compound 178]: the EC50 lay in the range of 0.8 to 2.5 µM.

With `CC(C)c1cc(C(=O)N[C@@H](Cc2ccc(-c3ncc(-c4ccc(C(C)(C)C)cc4)cn3)cc2)C(=O)O)cs1` [Compound 179], the 50% effective concentration (EC50) was 5 to 10 µM.

On to `CC(C)c1ncc(C(=O)N[C@@H](Cc2ccc(-c3ncc(-c4ccc(C(C)(C)C)cc4)cn3)cc2)C(=O)O)s1` [Compound 180], for which the EC50 is < 0.8 µM.

`CC(C)S(=O)(=O)c1ccc(C(=O)N[C@@H](Cc2ccc(-c3ncc(-c4ccc(C(C)(C)C)cc4)cn3)cc2)C(=O)O)cc1` [Compound 181]: the EC50 was in the range of 0.8 to 2.5 µM.

For the compound `CC(C)(C)c1ccc(-c2cnc(-c3ccc(C[C@@H](NC(=O)c4ccc(C(C)(C)C)s4)C(=O)O)cc3)nc2)cc1` [Compound 182], the EC50 was in the range of 0.8 to 2.5 µM.

Turning to `CCCCCCCOc1ccc(-c2cnc(-c3ccc(C[C@H](NC(=O)c4ccc(OS(C)(=O)=O)cc4)C(=O)O)cc3)nc2)cc1` [Compound 183], the EC50 fell in the range of 0.8 to 2.5 µM.

Turning to `CCCCCCCOc1ccc(-c2cnc(-c3ccc(C[C@H](NS(=O)(=O)c4ccccc4)C(=O)O)cc3)nc2)cc1` [Compound 184], the EC50 is 0.8 to 2.5 µM.

For `CCCCCCCOc1ccc(-c2cnc(-c3ccc(C[C@H](NS(=O)(=O)c4ccc(Cl)cc4)C(=O)O)cc3)nc2)cc1` [Compound 185], the EC50 fell in the range of 0.8 to 2.5 µM.

As to `CCCCCCCOc1ccc(-c2cnc(-c3ccc(C[C@H](NS(=O)(=O)c4ccc(OC)cc4)C(=O)O)cc3)nc2)cc1` [Compound 186], the EC50 fell in the range of 0.8 to 2.5 µM.

Turning to `CCCCCCCOc1ccc(-c2cnc(-c3ccc(C[C@H](NS(=O)(=O)c4ccc(C)cc4)C(=O)O)cc3)nc2)cc1` [Compound 187], the EC50 was in the range of 2.5 to 5 µM.

Turning to `CCCCCCCOc1ccc(-c2cnc(-c3ccc(C[C@H](NS(=O)(=O)c4ccc(Cl)c(Cl)c4)C(=O)O)cc3)nc2)cc1` [Compound 188], the EC50 lay in the range of 2.5 to 5 µM.

The record behind these values is patent publication US8778923B2, “GLP-1 receptor modulators” (Receptos, Inc., priority 2011, dated 2014).
